This note sets out measurements from US10195189B2, “2-phenethenyltetrahydro isoquinolines useful as anti-HIV compounds” (priority 2014, dated 2019).

SMILES strings stand for the structures. pEC50: −log10 of the molar value. Like-named read-outs stand apart in the source and are kept apart here.

The test system of data set [1] is MT-2 cells. Description: Cytotoxicity assay (AlamarBlue) in mock infected MT-2 cells. The class given is cell-based, human. On the procedure: (§1) The present assay was used to screen candidate antiviral compounds by quantification of virus spread and production over several rounds of infection in vitro. MT-2, a HIV-1 permissive human T-cell line, was seeded in microtiter plates and was simultaneously treated with serially diluted compound and inoculated with a HIV-1 NL4-3 viral clone engineered to express Renilla luciferase in place of Net Following treatment, the culture was incubated for 96 hours. After the incubation, media was collected and used to estimate relative infectivity on the indicator cell line, TZM-bl. Additionally, viral spread was quantified by measuring luciferase activity via a commercially available luciferase substrate. In parallel, MT-2 cells were seeded and inoculated with mock virus in the presence of serially diluted compound. Compound toxicity was quantified 96 hours after treatment with AlamarBlue.
(§2) MT-2 (NIH Aids reagent program 237) cells were grown and maintained in an incubator at 37° C. with 5% CO2 using a basal medium of RPMI-1640 supplemented with 10% FBS. Cells were seeded in 100 μl at 2×10^4 cells/well in white walled 96-well microtiter plates. Candidate compounds were 3-fold serially diluted in the appropriate solvent. Solvent without compound was used as a no drug reference. Cells were inoculated at a multiplicity of 0.027 with an HIV-1 NL4-3 virus stock engineered to express Renilla luciferase in place of Net Diluted virus stock was first added to serially diluted compound. Compound and virus were delivered to cells in an equal volume (100 μl) and treated cultures were returned to the incubator for 96 hours. In parallel, plates for cytotoxicity estimates were prepared in the same way except cells were plated in clear walled 96-well microtiter plates and were mock infected.
(§3) At 96 hours post treatment, 20 μl AlamarBlue proliferation reagent was added to 200 μl treated and mock infected cultures and incubated for 3 hours at 37° C. with 5% CO2 then read at 545, 590 nm on fluorescence plate reader (Biotek).
(§4) For all assays, data was imported into Accelrys Assay Explorer 3.3. In Assay Explorer, % inhibition (antiviral or cytotoxicity) was calculated using the solvent control as a reference by the following equation: 1−(SignalCompound/SignalReference). The % Inhibition and compound concentration data was fitted using the following 4-parameter logistic model (Assay Explorer model 42):
(§5) [formula] where X is compound concentration, Y is % inhibition, D is the maximum % Inhibition (constrained to 100%), C is IC50 value or inflection point, B is the hill slope, and A is the minimum % inhibition (constrained to 0%). The IC50 value is reported as the EC50 or CC50 depending on the assay endpoint. EC50 represents the effective concentration at which virus replication is inhibited by 50 percent. CC50 represents the concentration that results in the death of 50 percent of the host cells. The selectivity or therapeutic index (SI or TI), is the ratio of CC50 over EC50 and represents the relative effectiveness in inhibiting viral replication compared to inducing cell death.
Background: The colour change of resazurin is a common sign of viable cells or microbes.

The test system of data set [2] is HIV-1 NL4-3 viral clone expressing Renilla luciferase. Description: microbe, parasite or virus in culture. Format: cell-based. Put shortly: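 MT-2 cells (2×10^4/well) were infected at MOI 0.027 with Renilla-luciferase HIV-1 NL4-3 alongside 3-fold compound dilutions for 96 h. Spread was read by EnduRen luminescence and supernatant infectivity on TZM-bl (48 h, MUG fluorescence). Mock-infected cytotoxicity used AlamarBlue. % inhibition versus solvent was fitted by 4-parameter logistic (0–100% constrained) for EC50/CC50.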

The nature of data set [3]: Cytotoxicity assay (AlamarBlue) in mock infected MT-2 cells. The settings on record: human. Format: cell-based, human. On the procedure: as §1, §2, §3, §4, §5
The mark [4] stands for this setting: mock infected MT-2 cells, 96 hours, AlamarBlue, read-out: CC50.
[5] abbreviates: Human immunodeficiency virus 1, NL43, MT2, 96 h.

One may read the CC50 as the concentration that lowers cell viability or growth by half. The term pEC50 denotes the negative decadic logarithm of the EC50, by convention in mol/L.

Regarding `COc1ccc(/C=C/C2NCCc3cc(OCc4ccccc4)c(OC)cc32)c(C(F)(F)F)c1` (stereo not shown) [Example Z, 6-benzyloxy-7-methoxy-1-[(E)-2-[4-methoxy-2-(trifluoromethyl)phenyl]vinyl]-1,2,3,4-tetrahydroisoquinoline], the CC50 in data set [1] (setting [4]) stood at 100 µM. In data set [2] (setting [5]), the pEC50 was 6.46. In turn, `COc1cc(C)c(/C=C/C2c3cc(OC)c(OCc4ccccc4)cc3CCN2C(=O)c2ccccn2)cc1OCc1ccccc1` (stereo not shown) [Example M, [6-benzyloxy-1-[(E)-2-(5-benzyloxy-4-methoxy-2-methyl-phenyl)vinyl]-7-methoxy-3,4-dihydro-1H-isoquinolin-2-yl]-(2-pyridyl)methanone] yielded a CC50 in data set [1] (human, 96 h) of 100 µM. The compound also gave a pEC50 in data set [2] (setting [5]) of 5.68. The like results for `COc1ncc(/C=C/C2NCCc3cc(OCc4ccccc4)c(OC)cc32)cn1` (stereo not shown) [DD, (E)-(benzyloxy)-7-methoxy-1-(2-(2-methoxypyrimidin-5-yl)vinyl)-1,2,3,4-tetrahydroisoquinoline] were, in that order, 100 µM and 4.96. The like results for `COc1cc(C)c(/C=C/C2c3cc(OC)c(OCc4ccccc4)cc3CCN2C(=O)c2ccc(N)nc2)cc1OCc1ccccc1` (stereo not shown) [Example P, (6-amino-3-pyridyl)-[6-benzyloxy-1-[(E)-2-(5-benzyloxy-4-methoxy-2-methyl-phenyl)vinyl]-7-methoxy-3,4-dihydro-1H-isoquinolin-2-yl]methanone] were, in that order, 100 µM and 5.77. In data set [1] (human, 96 h), `COc1cc(C)c(/C=C/C2c3cc(OC)c(OCc4ccccc4)cc3CCN2C(=O)c2ccnc(N)c2)cc1OCc1ccccc1` (stereo not shown) [Example N, (2-amino-4-pyridyl)-[6-benzyloxy-1-[(E)-2-(5-benzyloxy-4-methoxy-2-methyl-phenyl)vinyl]-7-methoxy-3,4-dihydro-1H-isoquinolin-2-yl]methanone] registered a CC50 of 100 µM. This compound had a pEC50 in data set [2] (setting [5]) of 5.69.

`COC(=O)N1CCc2cc(OCc3ccccc3)c(OC)cc2C1/C=C/c1cc(OC)c(OC)cc1C` (stereo not shown) [Example I, Methyl 6-benzyloxy-1-[(E)-2-(4,5-dimethoxy-2-methyl-phenyl)vinyl]-7-methoxy-3,4-dihydro-1H-isoquinoline-2-carboxylate] showed a CC50 in data set [1] (human, 96 h) of 100 µM. Besides, the pEC50 in data set [2] (setting [5]) is 5.35.

With `CCOCc1cc(/C=C/C2NCCc3cc(OCc4ccccc4)c(OC)cc32)ccc1OC` (stereo not shown) [EP, (E)-6-(benzyloxy)-1-(3-(ethoxymethyl)-4-methoxystyryl)-7-methoxy-1,2,3,4-tetrahydroisoquinoline], in data set [3], it took 4 µM to reach half-maximal cytotoxicity (CC50 at 96 h). Moreover, in data set [2] (setting [5]), the negative-log EC50 (pEC50) is 6.07. Take `COc1cc(C)c(/C=C/C2c3cc(OC)c(OCc4ccccc4)cc3CCN2C(=O)c2cccnc2N)cc1OCc1ccccc1` (stereo not shown) [Example K, (2-Amino-3-pyridyl)-[6-benzyloxy-1-[(E)-2-(5-benzyloxy-4-methoxy-2-methyl-phenyl)vinyl]-7-methoxy-3,4-dihydro-1H-isoquinoline-2-yl]methanone]: the CC50 in data set [1] (human, 96 h) was 100 µM. This compound also had a pEC50 in data set [2] (setting [5]) of 5.54. With `COc1cc(C)c(/C=C/C2c3cc(OC)c(OCc4ccccc4)cc3CCN2C(=O)c2cccc(N)n2)cc1OCc1ccccc1` (stereo not shown) [Example F, (6-Amino-2-pyridyl)-[6-benzyloxy-1-[(E)-2-(5-benzyloxy-4-methoxy-2-methyl-phenyl)vinyl]-7-methoxy-3,4-dihydro-1H-isoquinolin-2-yl]methanone], the half-maximal cytotoxic concentration (CC50) in data set [1] (human, 96 h) amounted to 100 µM. Also, the pEC50 in data set [2] (setting [5]) was 5.30. The like results for `COc1cc(C)c(/C=C/C2c3cc(OC)c(OCc4ccccc4)cc3CCN2C(=O)c2cnccn2)cc1OCc1ccccc1` (stereo not shown) [Example H, [6-Benzyloxy-1-[(E)-2-(5-benzyloxy-4-methoxy-2-methyl-phenyl)vinyl]-7-methoxy-3,4-dihydro-1H-isoquinolin-2-yl]-pyrazin-2-yl-methanone] were, in that order, 100 µM and 5.35. `COc1cc2c(cc1OCc1ccccc1)CCNC2/C=C/c1ccc2cn[nH]c2c1` (stereo not shown) [BT, 6-Benzyloxy-1-[(E)-2-(1H-indazol-6-yl)vinyl]-7-methoxy-1,2,3,4-tetrahydroisoquinoline] returned a CC50 in data set [1] of 7.98 µM. Moreover, the pEC50 in data set [2] (MT-2 cells infected with HIV-1 NL4-3, 96 hours, read-out: EC50) was 6.21. For the compound `COc1cc(C)c(/C=C/C2c3cc(OC)c(OCc4ccccc4)cc3CCN2C(=O)c2cccnc2)cc1OCc1ccccc1` (stereo not shown) [Example T, [6-benzyloxy-1-[(E)-2-(5-benzyloxy-4-methoxy-2-methyl-phenyl)vinyl]-7-methoxy-3,4-dihydro-1H-isoquinolin-2-yl]-(3-pyridyl)methanone], in data set [1] (human, 96 h), the midpoint of cytotoxicity, the CC50, lay at 100 µM. The same compound showed a pEC50 in data set [2] (setting [5]) of 6.03.

As to `COc1cc(C(C)(C)C)c(/C=C/C2NCCc3cc(OCc4ccccc4)c(OC)cc32)cc1OCc1ccccc1` (stereo not shown) [AS, 6-Benzyloxy-1-[(E)-2-(5-benzyloxy-2-tert-butyl-4-methoxy-phenyl)vinyl]-7-methoxy-1,2,3,4-tetrahydroisoquinoline], the half-maximal cytotoxic concentration (CC50) in data set [1] (setting [4]) amounted to 5.36 µM. The pEC50 in data set [2] (setting [5]) was 5.37. The like results for `COc1cc(C)c(/C=C/C2c3cc(OC)c(OCc4ccccc4)cc3CCN2C(N)=O)cc1OCc1ccccc1` (stereo not shown) [Example R, 6-benzyloxy-1-[(E)-2-(5-benzyloxy-4-methoxy-2-methyl-phenyl)vinyl]-7-methoxy-3,4-dihydro-1H-isoquinoline-2-carboxamide] were, in that order, 39.3 µM and 5.93. With `COc1cc2c(cc1OCc1ccccc1)CCNC2/C=C/c1ccc2cccnc2c1` (stereo not drawn) [DL, (E)-7-(2-(6-(benzyloxy)-7-methoxy-1,2,3,4-tetrahydroisoquinolin-1-yl)vinyl)quinoline], the pEC50 in data set [2] (setting [5]) was 7.01. With `COc1cc(C)c(/C=C/C2c3cc(OC)c(OCc4ccccc4)cc3CCN2C(=O)OC(C)(C)C)cc1OCc1ccccc1` (stereo not shown) [Example Y, tert-butyl 6-benzyloxy-1-[(E)-2-(5-benzyloxy-4-methoxy-2-methyl-phenyl)vinyl]-7-methoxy-3,4-dihydro-1H-isoquinoline-2-carboxylate], the pEC50 in data set [2] (setting [5]) was 6.41. Same read-out and setting: with `COc1cc(OC)c(/C=C/C2NCCc3cc(OCc4ccccc4)c(OC)cc32)cc1C` (stereo not shown) [EH, 6-Benzyloxy-1-[(E)-2-(2,4-dimethoxy-5-methyl-phenyl)vinyl]-7-methoxy-1,2,3,4-tetrahydroisoquinolin] the figure was 7.18.
